Patent publication US20250081967A1, “PESTICIDALLY ACTIVE HETEROCYCLIC DERIVATIVES WITH SULFOXIMINE CONTAINING SUBSTITUENTS” (SYNGENTA CROP PROTECTION AG, priority 2021, published 2025)

Legend:
Assay type in all cases: in vivo
Spodoptera littoralis = assay: Activity against Spodoptera littoralis (Egyptian cotton leaf worm), cotton leaf discs; conditions: foliar, 72 h, application rate 200 ppm, L1 larvae, 3 days after infestation, read-out: control (mortality, anti-feeding effect or growth inhibition)
Outline: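 Cotton leaf discs on agar sprayed with aqueous test solutions made from 10′000 ppm DMSO stocks, dried, then infested with five L1 larvae. Mortality, anti-feeding and growth inhibition scored versus untreated samples 3 days after infestation; control given when any category exceeds untreated.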

Plutella xylostella [1] = assay: Activity against Plutella xylostella (diamond back moth), artificial diet, L2 larvae; conditions: 120 h, application rate 200 ppm, 5 days after infestation, read-out: effect in at least one of the two categories (mortality or growth inhibition)
Description: Example B2: Activity Against Plutella xylostella (Diamond Back Moth)
24-well microtiter plates with artificial diet were treated with aqueous test solutions prepared from 10′000 ppm DMSO stock solutions by pipetting. After drying, the plates were infested with L2 larvae (10 to 15 per well). The samples were assessed for mortality and growth inhibition in comparison to untreated samples 5 days after infestation.

Diabrotica balteata = assay: Activity against Diabrotica balteata (corn root worm), maize sprouts; conditions: 96 h, application rate 200 ppm, L2 larvae, 4 days after infestation, read-out: effect in at least one of the two categories (mortality or growth inhibition)
Description: Example B3: Activity Against Diabrotica Balteata (Corn Root Worm)
Maize sprouts placed onto an agar layer in 24-well microtiter plates were treated with aqueous test solutions prepared from 10′000 ppm DMSO stock solutions by spraying. After drying, the plates were infested with L2 larvae (6 to 10 per well). The samples were assessed for mortality and growth inhibition in comparison to untreated samples 4 days after infestation.

Myzus persicae [2] = assay: Activity against Myzus persicae (green peach aphid), feeding/contact activity, sunflower leaf discs; conditions: Myzus persicae, foliar, 144 h, application rate 200 ppm; feeding/contact; 6 days after infestation
Description: Example B4: Activity Against Myzus persicae (Green Peach Aphid) Feeding/Contact Activity
Sunflower leaf discs were placed on agar in a 24-well microtiter plate and sprayed with aqueous test solutions prepared from 10′000 ppm DMSO stock solutions. After drying, the leaf discs were infested with an aphid population of mixed ages. The samples were assessed for mortality 6 days after infestation.

Myzus persicae [3] = assay: Activity against Myzus persicae (green peach aphid), systemic activity, pea seedlings; conditions: Myzus persicae, 144 h, test rate 24 ppm; systemic; 6 days after placing seedlings in test solutions
Description: Example B5: Activity Against Myzus persicae (Green Peach Aphid) Systemic Activity
Roots of pea seedlings infested with an aphid population of mixed ages were placed directly in the aqueous test solutions prepared from 10′000 DMSO stock solutions. The samples were assessed for mortality 6 days after placing seedlings in test solutions.

Bemisia tabaci = assay: Activity against Bemisia tabaci (cotton white fly), cotton leaf discs; conditions: foliar, 144 h, application rate 200 ppm, adult white flies, 6 days after incubation
Description: Example B6: Activity Against Bemisia tabaci (Cotton White Fly)
Cotton leaf discs were placed on agar in 24-well microtiter plates and sprayed with aqueous test solutions prepared from 10′000 ppm DMSO stock solutions. After drying the leaf discs were infested with adult white flies. The samples were checked for mortality 6 days after incubation.

Euschistus heros = assay: Activity against Euschistus heros (neotropical brown stink bug), soybean leaf; conditions: 120 h, application rate 200 ppm, N-2 nymphs, 5 days after infestation, read-out: effect in at least one of the two categories (mortality or growth inhibition)
Description: Example B7: Activity Against Euschistus heros (Neotropical Brown Stink Bug)
Soybean leaf on agar in 24-well microtiter plates were sprayed with aqueous test solutions prepared from 10′000 ppm DMSO stock solutions. After drying the leaf were infested with N-2 nymphs. The samples were assessed for mortality and growth inhibition in comparison to untreated samples 5 days after infestation.

[4] = test system: Frankliniella occidentalis; assay: Activity against Frankliniella occidentalis (western flower thrips), sunflower leaf discs; conditions: foliar, 168 h, application rate 200 ppm, mixed ages, 7 days after infestation
Description: Example B8: Activity Against Frankliniella occidentalis (Western Flower Thrips)
Sunflower leaf discs were placed on agar in 24-well microtiter plates and sprayed with aqueous test solutions prepared from […] stock solutions. After drying the leaf discs were infested with a Frankliniella population of mixed ages. The samples were assessed for mortality 7 days after infestation.

Plutella xylostella [5] = assay: Activity against Plutella xylostella (diamond back moth), artificial diet, eggs; conditions: 192 h, application rate 200 ppm, 8 days after infestation, read-out: effect in at least one of the two categories (mortality or growth inhibition)
Outline: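 Artificial diet in wells treated with aqueous dilutions of 10′000 ppm DMSO stocks, dried, then infested with Plutella eggs. Mortality and growth inhibition scored against untreated samples 8 days after infestation.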

Tetranychus urticae = assay: Activity against Tetranychus urticae (two-spotted spider mite), bean leaf discs; conditions: foliar, 192 h, application rate 200 ppm, mixed population (mobile stages), 8 days after infestation
Description: Example B10: Activity Against Tetranychus urticae (Two-Spotted Spider Mite)
Bean leaf discs on agar in 24-well microtiter plates were sprayed with aqueous test solutions prepared from 10′000 ppm DMSO stock solutions. After drying the leaf discs were infested with a mite population of mixed ages. The samples were assessed for mortality on mixed population (mobile stages) 8 days after infestation.

CCS(=N)(=O)c1cc(OC(C)(C)C#N)cnc1-c1nc2cc(C(F)(F)F)n(C3CC3)c(=O)c2n1C (racemic) [Compound P1, 2-[[6-[5-cyclopropyl-3-methyl-4-oxo-6-(trifluoromethyl)imidazo[4,5-c]pyridin-2-yl]-5-(ethylsulfonimidoyl)-3-pyridyl]oxy]-2-methyl-propanenitrile]
≥ 80%: percent control (mortality, anti-feedant effect or growth inhibition) at 200 ppm (Spodoptera littoralis) | percent effect (mortality or growth inhibition) at 200 ppm (Plutella xylostella [1]) | percent effect (mortality or growth inhibition) at 200 ppm (Diabrotica balteata) | mortality at 200 ppm (Myzus persicae [2]) | mortality at 24 ppm (Myzus persicae [3]) | mortality at 200 ppm (Bemisia tabaci) | percent effect (mortality or growth inhibition) at 200 ppm (Euschistus heros) | mortality at 200 ppm [4]

CCS(=N)(=O)c1cc(OC(C)(C)C#N)cnc1-c1cn2cnc(SC(F)(F)F)cc2n1 (racemic) [Compound P7, 2-[[5-(ethylsulfonimidoyl)-6-[7-(trifluoromethylsulfanyl)imidazo[1,2-c]pyrimidin-2-yl]-3-pyridyl]oxy]-2-methyl-propanenitrile]
≥ 80%: percent effect (mortality or growth inhibition) at 200 ppm (Diabrotica balteata) | mortality at 200 ppm (Myzus persicae [2]) | mortality at 200 ppm (Bemisia tabaci) | percent effect (mortality or growth inhibition) at 200 ppm (Euschistus heros) | mortality at 200 ppm [4] | percent effect (mortality or growth inhibition) at 200 ppm (Plutella xylostella [5]) | mortality at 200 ppm (Tetranychus urticae)

CCS(=N)(=O)c1cc(OC(C)(C)C#N)cnc1-c1nc2cc(C(F)(F)F)ncc2n1C (racemic) [Compound P13, 2-[[5-(ethylsulfonimidoyl)-6-[3-methyl-6-(trifluoromethyl)imidazo[4,5-c]pyridin-2-yl]-3-pyridyl]oxy]-2-methyl-propanenitrile]
≥ 80%: percent control (mortality, anti-feedant effect or growth inhibition) at 200 ppm (Spodoptera littoralis) | percent effect (mortality or growth inhibition) at 200 ppm (Plutella xylostella [1]) | percent effect (mortality or growth inhibition) at 200 ppm (Diabrotica balteata) | mortality at 200 ppm (Myzus persicae [2]) | mortality at 24 ppm (Myzus persicae [3]) | mortality at 200 ppm (Bemisia tabaci) | percent effect (mortality or growth inhibition) at 200 ppm (Euschistus heros) | mortality at 200 ppm (Tetranychus urticae)

CCn1c(C(F)(F)F)cc2nc(-c3ncc(OC(C)(C)C#N)cc3S(=N)(=O)CC)n(C)c2c1=O (single isomer, unassigned) [Compound P19-A, 2-[[6-[5-ethyl-3-methyl-4-oxo-6-(trifluoromethyl)imidazo[4,5-c]pyridin-2-yl]-5-(ethylsulfonimidoyl)-3-pyridyl]oxy]-2-methyl-propanenitrile]
≥ 80%: percent control (mortality, anti-feedant effect or growth inhibition) at 200 ppm (Spodoptera littoralis) | percent effect (mortality or growth inhibition) at 200 ppm (Diabrotica balteata) | mortality at 200 ppm (Myzus persicae [2]) | mortality at 24 ppm (Myzus persicae [3]) | mortality at 200 ppm (Bemisia tabaci) | percent effect (mortality or growth inhibition) at 200 ppm (Euschistus heros) | percent effect (mortality or growth inhibition) at 200 ppm (Plutella xylostella [5]) | mortality at 200 ppm (Tetranychus urticae)
